These results are taken from PubChem BioAssay (NCI).

Structures are written as SMILES. Where “and” joins values, the source holds several entries; their conditions need not be identical. Equal values may be shown once.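 All cell lines were grown in 96-well plates and treated with compound for 48 hours. At the GI50, growth is halved. TGI: concentration producing complete growth inhibition.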

Test systems include MDA-MB-435; SNB-19 CNS; DU-145 prostate; SK-MEL-28 melanoma; CAKI-1 renal; SN12C renal; HCT-116 colon; A549 NSCLC; NCI-H23 lung; T-47D breast.
Assay in all cases: NCI tumour cell line growth inhibition, 48 h

Take `Cc1cn(-c2cc(NC(=O)c3cccc(C#Cc4cccc5[nH]nc(N)c45)c3)cc(C(F)(F)F)c2)cn1`: the GI50 is 3.74 µM with MDA-MB-435; 8.14 µM in the assay with SNB-19 CNS; 10.3 µM with DU-145 prostate; 2.62 µM with SK-MEL-28 melanoma; 4.23 µM in the assay on CAKI-1 renal; 7.6 µM in the assay with SN12C renal. Further, the GI50 is 2.62 µM with HCT-116 colon, 10.4 µM with A549 NSCLC, 4.61 µM in the assay with NCI-H23 lung and 3.39 µM with T-47D breast. In addition, the TGI in the assay with MDA-MB-435 is 37 µM; in the assay on SNB-19 CNS, 32.7 µM; with DU-145 prostate it was 40.7 µM; in the assay with SK-MEL-28 melanoma it was 25.7 µM; in the assay with CAKI-1 renal, 16.6 µM; in the assay with SN12C renal, above 100 µM. In addition, the TGI was 18.8 µM with HCT-116 colon, 35.2 µM in the assay on A549 NSCLC, above 100 µM with NCI-H23 lung and 18.5 µM with T-47D breast.
As to `CN(C)CCOc1ccc([N+](=O)[O-])c2cccnc12`, the TGI with MDA-MB-435, with SNB-19 CNS, in the assay with DU-145 prostate, in the assay on SK-MEL-28 melanoma, with CAKI-1 renal and with SN12C renal was above 100 µM each time. Moreover, the TGI with HCT-116 colon, with A549 NSCLC, with NCI-H23 lung and in the assay with T-47D breast was above 100 µM each time.
Consider `O=NNc1ccc2ccccc2n1`, for which the TGI with MDA-MB-435, with SNB-19 CNS, in the assay on DU-145 prostate, in the assay on SK-MEL-28 melanoma, with CAKI-1 renal and in the assay on SN12C renal was above 100 µM in each case. In addition, the TGI with HCT-116 colon, in the assay with A549 NSCLC, in the assay on NCI-H23 lung and in the assay on T-47D breast was above 100 µM in each case.
Consider `CCN1C(=O)c2ccc3c4c(ccc(c24)C1=O)C(=O)N(CCCNCc1ccccc1OC)C3=O`, for which the GI50 was 0.173 µM in the assay on MDA-MB-435; 1.33 µM in the assay with SNB-19 CNS; 1.22 µM with DU-145 prostate; 1.58 µM with SK-MEL-28 melanoma; 0.791 µM with CAKI-1 renal; 0.327 µM in the assay on SN12C renal. Further, the GI50 in the assay with HCT-116 colon is 0.329 µM; with A549 NSCLC, 0.78 µM; in the assay with NCI-H23 lung it was 0.782 µM; in the assay with T-47D breast, 1 µM. The TGI in the assay with MDA-MB-435 was 0.322 µM; in the assay with SNB-19 CNS it was 2.97 µM; in the assay on DU-145 prostate it was 2.5 µM; with SK-MEL-28 melanoma, 3.24 µM; in the assay with CAKI-1 renal, 2.47 µM; with SN12C renal it was 1.32 µM. Also, the TGI was 1.14 µM with HCT-116 colon, 2.49 µM in the assay with A549 NSCLC, 3.68 µM with NCI-H23 lung and 3.29 µM with T-47D breast.
For the molecule `COc1ccc2c(c1)NC1=C(C(=O)OC1)C2c1cc(OC)c(OC)c(OC)c1` (stereo not drawn), the GI50 in the assay on MDA-MB-435 was below 0.01 µM; in the assay on SNB-19 CNS, below 0.01 µM; in the assay with DU-145 prostate it was below 0.01 µM; in the assay on CAKI-1 renal, below 0.0127 µM; with SN12C renal, below 0.01 µM; with HCT-116 colon it was below 0.01 µM. Moreover, the GI50 with A549 NSCLC is below 0.01 µM; in the assay on NCI-H23 lung it was below 0.01 µM; with T-47D breast, 25.6 µM. Moreover, the TGI in the assay with MDA-MB-435 was below 0.0164 µM; in the assay with SNB-19 CNS it was above 100 µM; in the assay on DU-145 prostate, below 0.01 µM; in the assay with SK-MEL-28 melanoma, above 100 µM; in the assay with CAKI-1 renal, above 100 µM; with SN12C renal, above 100 µM. The TGI with HCT-116 colon was above 100 µM; with A549 NSCLC, above 100 µM; with NCI-H23 lung, above 77 µM; in the assay with T-47D breast, above 100 µM.
Regarding `N[C@H](C(=O)O)[C@@H]1CC(Cl)=NO1`, the GI50 was 25.3 µM in the assay with MDA-MB-435; 16.8 µM and 5.14 µM in the assay with SNB-19 CNS; 99.6 µM in the assay with DU-145 prostate; 28.9 µM with SK-MEL-28 melanoma; 23.9 µM with CAKI-1 renal; 53.7 µM in the assay on SN12C renal. In addition, the GI50 was 3.71 µM with HCT-116 colon, 6.06 µM with A549 NSCLC and 38.2 µM in the assay on NCI-H23 lung. For the same molecule, the TGI is above 645 µM in the assay with MDA-MB-435; above 661 µM in the assay on SNB-19 CNS; above 1000 µM with DU-145 prostate; above 1000 µM in the assay on SK-MEL-28 melanoma; 160 µM with CAKI-1 renal; above 1000 µM in the assay with SN12C renal. Besides, the TGI is above 1000 µM in the assay on HCT-116 colon, 678 µM in the assay with A549 NSCLC, above 1000 µM in the assay with NCI-H23 lung and above 1000 µM in the assay on T-47D breast.
Turning to `CC(C)CNc1nc(-c2ccccc2Cl)nc2ccccc12`, the GI50 in the assay on MDA-MB-435 was 16.5 µM; in the assay on SNB-19 CNS, 24.8 µM; in the assay on DU-145 prostate it was 16.1 µM; in the assay on SK-MEL-28 melanoma, 20.8 µM; in the assay with CAKI-1 renal, 15 µM; in the assay with SN12C renal, 16.5 µM. Further, the GI50 was 16.6 µM in the assay on HCT-116 colon, 14.1 µM in the assay with A549 NSCLC, 16.2 µM in the assay on NCI-H23 lung and 35.2 µM with T-47D breast. Also, the TGI with MDA-MB-435 turned out to be 30.8 µM; in the assay on SNB-19 CNS, 58.5 µM; in the assay with DU-145 prostate, 30.5 µM; in the assay with SK-MEL-28 melanoma, 40.7 µM; in the assay on CAKI-1 renal, 32.7 µM; with SN12C renal, 30.6 µM. Also, the TGI is 30.2 µM in the assay with HCT-116 colon, 33.5 µM in the assay on A549 NSCLC, 31 µM in the assay on NCI-H23 lung and above 100 µM in the assay on T-47D breast.
Take `COCCOC(=O)C1=C(O)c2ccccc2S(=O)(=O)N1C`: the TGI in the assay on MDA-MB-435, with SNB-19 CNS, with DU-145 prostate, in the assay with SK-MEL-28 melanoma, in the assay with CAKI-1 renal and with SN12C renal was above 100 µM each time. The TGI in the assay on HCT-116 colon, in the assay with A549 NSCLC, with NCI-H23 lung and in the assay with T-47D breast was above 100 µM each time.
